Test results as given in patent publication US7273846B2, “Selective melanin-concentrating hormone type-1 receptor agonists” (priority 2002, dated 2007).
Residues, ends and D or L forms follow the SMILES beside them.

Key:
[1] = target: T1, MCH-1R (Homo sapiens, UniProt Q99705); experiment: Aequorin bioluminescence functional assay, 293AEQ17/MCH-1R cells; format: cell-based; set-up: expressed in transfected cells; conditions: for MCH-1R Activation %: human MCH = 100, activation at 10 μM concentration; for fold lower agonist activity at hMCH-1R: relative to Ac-hMCH(6-16)-NH2; for EC50: aequorin, 293AEQ17/MCH-1R cells, read-out: MCH-1R EC50
Description: (§1) The aequorin bioluminescence assay is a reliable test for identifying G-protein-coupled receptors that couple through the G protein subunit family consisting of Gq and G11. Gq and G11 coupling leads to the activation of phospholipase C, mobilization of intracellular calcium, and activation of protein kinase C.
Stable cell lines expressing either the MCH-1R or the MCH-2R and the aequorin reporter protein were used. The assay was performed using a Luminoskan RT luminometer (Labsystems Inc., Gaithersburg, Md.) controlled by custom software written for a Macintosh PowerPC 6100.
(§2) The cells were harvested, washed once in ECB medium, and resuspended to 500,000 cells/mL. 100 μL of cell suspension (corresponding to 5×10^4 cells) was then injected into the test plate containing the hMCH peptides, and the integrated light emission was recorded over 30 seconds, in 0.5-s units. 20 μL of lysis buffer (0.1% final Triton X-100 concentration) was then injected and the integrated light emission recorded over 10 seconds, in 0.5-s units. The “fractional response” values for each well were calculated by taking the ratio of the integrated response to the initial challenge to the total integrated luminescence including the Triton X-100 lysis response.

[2] = target: T2, MCH-2R (Homo sapiens, UniProt Q969V1); experiment: Aequorin bioluminescence functional assay, 293AEQ17/MCH-2R cells; format: cell-based; set-up: expressed in transfected cells; MCH-2R Activation %: concentration or dose not given beside the values; conditions: for MCH-2R Activation %: human MCH = 100; for EC50: aequorin, 293AEQ17/MCH-2R cells
Description: as §1
Stable cell lines expressing either the MCH-1R or the MCH-2R and the aequorin reporter protein were used.
as §2

[3] = target: T1, MCH-1R
[4] = target: T2, MCH-2R; experiment: Radioligand binding assay (SPA), MCH-2R; conditions: for IC50: MCH-2R IC50, [125I]-[Phe13,Tyr19]-hMCH SPA, COS or CHO MCH-2R membranes
[5] = target: T1, MCH-1R; experiment: biochemical

T2 sequence (Q969V1 whole entry): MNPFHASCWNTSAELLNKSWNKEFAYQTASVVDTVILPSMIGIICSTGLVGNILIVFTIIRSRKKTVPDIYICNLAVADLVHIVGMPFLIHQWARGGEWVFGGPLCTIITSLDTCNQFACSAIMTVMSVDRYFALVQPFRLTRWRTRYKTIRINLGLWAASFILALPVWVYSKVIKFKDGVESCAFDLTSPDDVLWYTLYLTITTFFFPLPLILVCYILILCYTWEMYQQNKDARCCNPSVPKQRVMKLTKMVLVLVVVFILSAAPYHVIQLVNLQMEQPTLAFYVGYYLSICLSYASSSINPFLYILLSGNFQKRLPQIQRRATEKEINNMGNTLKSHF
T1 sequence (Q99705 whole entry): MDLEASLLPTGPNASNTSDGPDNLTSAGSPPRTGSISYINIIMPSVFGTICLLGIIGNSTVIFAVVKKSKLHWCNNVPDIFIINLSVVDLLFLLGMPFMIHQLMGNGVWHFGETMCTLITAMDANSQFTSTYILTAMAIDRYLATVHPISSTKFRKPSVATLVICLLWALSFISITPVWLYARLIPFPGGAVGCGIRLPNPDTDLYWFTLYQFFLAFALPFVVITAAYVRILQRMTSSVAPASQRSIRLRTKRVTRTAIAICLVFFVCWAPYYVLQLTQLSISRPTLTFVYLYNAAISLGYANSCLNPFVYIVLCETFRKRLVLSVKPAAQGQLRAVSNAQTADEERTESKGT

Selectivity 2/1 (MCH-2R/MCH-1R EC50 activity ratio) [1] | MCH-1R Activation % [1] | MCH-2R Activation % [2] | Selectivity 2/1 (MCH-2R/MCH-1R IC50 binding ratio) [3] | IC50 [4] | IC50 [5] | EC50 [2] | binding to hMCH-1R in words [3] | fold weaker binding at hMCH-2R ([4]; relative to Ac-hMCH(6-16)-NH2) | fold lower agonist activity at hMCH-1R [1] | fold lower agonist potency at hMCH-2R ([2]; relative to Ac-hMCH(6-16)-NH2) | fold more selective as agonist for hMCH-1R than hMCH-2R [1] | fold lower binding affinity at hMCH-1R ([3]; relative to Ac-hMCH(6-16)-NH2) | binding to hMCH-2R in words [4] | EC50 [1] | SMILES | agonism at hMCH-1R in words [1] | agonism at hMCH-2R in words [2]
23 | 130% | 23% | 5700 | – | 0.28 nM | – | – | – | – | – | – | – | – | – | CCCC[C@@H]1NC(=O)[C@@H](NC(=O)[C@@H](CCCNC(=N)N)NC(C)=O)CSSC[C@@H](C(N)=O)NC(=O)[C@@H]2CCCN2C(=O)[C@H](CCCNC(=N)N)NC(=O)[C@H](Cc2ccc(O)cc2)NC(=O)[C@H](C(C)C)NC(=O)[C@H](CCCNC(=N)N)NC(=O)[C@H](CC(N)=O)NC(=O)[C@H](CC(C)C)NC1=O [SEQ. ID. NO. 31] (HELM PEPTIDE1{[ac].[dR].C.[Nle].L.N.R.V.Y.R.P.C.[am]}$PEPTIDE1,PEPTIDE1,3:R3-12:R3$$$V2.0) | potent and selective hMCH-1R agonists | –
1 | 43% | 40% | 86 | 1460 nM | – | – | – | – | 300 fold | 300 fold | – | – | – | – | CSCC[C@@H]1NC(=O)[C@@H](NC(=O)[C@H](CCCNC(=N)N)NC(C)=O)CSSC[C@@H](C(N)=O)NC(=O)[C@@H]2CCCN2C(=O)[C@H](CCCNC(=N)N)NC(=O)[C@H](Cc2ccc(O)cc2)NC(=O)[C@H](C(C)C)NC(=O)[C@H](CCCNC(=N)N)NC(=O)[C@H](CCCCN)NC(=O)[C@H](CC(C)C)NC1=O [SEQ. ID. NO. 24] | – | –
150 | 120% | 20% | 6600 | – | 0.5 nM | – | – | – | – | – | about 150 fold | – | – | – | CSCC[C@@H]1NC(=O)[C@@H](NC(=O)[C@@H](CCCNC(=N)N)NC(C)=O)CSSC[C@@H](C(N)=O)NC(=O)[C@@H]2CCCN2C(=O)[C@H](CCCNC(=N)N)NC(=O)[C@H](Cc2ccc(O)cc2)NC(=O)[C@H](C(C)C)NC(=O)[C@H](CCCNC(=N)N)NC(=O)[C@H](CC(N)=O)NC(=O)[C@H](CC(C)C)NC1=O [SEQ. ID. NO. 29] (HELM PEPTIDE1{[ac].[dR].C.M.L.N.R.V.Y.R.P.C.[am]}$PEPTIDE1,PEPTIDE1,3:R3-12:R3$$$V2.0) | activated hMCH-1R almost as efficiently as Ac-hMCH(6-16)NH2 | –
0.7 | 120% | 87% | 100 | 55 nM | – | – | – | – | – | – | – | – | – | – | CSCC[C@@H]1NC(=O)[C@@H](NC(=O)[C@H](CCCNC(=N)N)NC(C)=O)CSSC[C@@H](C(N)=O)NC(=O)[C@@H]2CCCN2C(=O)[C@H](CCCNC(=N)N)NC(=O)[C@H](Cc2ccc(O)cc2)NC(=O)[C@H](C(C)C)NC(=O)[C@H](CCCNC(=N)N)NC(=O)[C@H](CO)NC(=O)[C@H](CC(C)C)NC1=O [SEQ. ID. NO. 26] (HELM PEPTIDE1{[ac].R.C.M.L.S.R.V.Y.R.P.C.[am]}$PEPTIDE1,PEPTIDE1,3:R3-12:R3$$$V2.0) | – | –
4.7 | 126% | 86% | 1800 | – | 0.28 nM | – | – | – | – | – | – | – | – | 51 nM | CSCC[C@@H]1NC(=O)[C@@H](NC(=O)[C@H](CCCNC(=N)N)NC(C)=O)CSSC[C@@H](C(N)=O)NC(=O)[C@@H]2CCCN2C(=O)[C@H](CCCNC(=N)N)NC(=O)[C@H](Cc2ccc(O)cc2)NC(=O)[C@H](C(C)C)NC(=O)[C@H](CCCNC(=N)N)NC(=O)[C@H](CC(N)=O)NC(=O)[C@H](CC(C)C)NC1=O [SEQ. ID. NO. 25] (HELM PEPTIDE1{[ac].R.C.M.L.N.R.V.Y.R.P.C.[am]}$PEPTIDE1,PEPTIDE1,3:R3-12:R3$$$V2.0) | – | –

Continued, molecule first:

SMILES | Selectivity 2/1 (MCH-2R/MCH-1R EC50 activity ratio) [1] | MCH-1R Activation % [1] | MCH-2R Activation % [2] | Selectivity 2/1 (MCH-2R/MCH-1R IC50 binding ratio) [3] | IC50 [4] | IC50 [5] | EC50 [2] | binding to hMCH-1R in words [3] | fold weaker binding at hMCH-2R ([4]; relative to Ac-hMCH(6-16)-NH2) | fold lower agonist activity at hMCH-1R [1] | fold lower agonist potency at hMCH-2R ([2]; relative to Ac-hMCH(6-16)-NH2) | fold more selective as agonist for hMCH-1R than hMCH-2R [1] | fold lower binding affinity at hMCH-1R ([3]; relative to Ac-hMCH(6-16)-NH2) | binding to hMCH-2R in words [4] | EC50 [1] | agonism at hMCH-1R in words [1] | agonism at hMCH-2R in words [2]
CSCC[C@@H]1NC(=O)[C@@H](NC(=O)[C@H](CCCNC(=N)N)NC(C)=O)CSSC[C@@H](C(N)=O)NC(=O)[C@@H]2CCCN2C(=O)[C@H](CCCNC(=N)N)NC(=O)[C@H](Cc2ccc(O)cc2)NC(=O)[C@H](C(C)C)NC(=O)[C@H](CCCNC(=N)N)NC(=O)[C@H](CC2CCCCC2)NC(=O)[C@H](CC(C)C)NC1=O [SEQ. ID. NO. 19] | 0.25 | 76% | 74% | 11 | 55 nM | – | – | – | – | – | – | – | – | – | – | poorly activated both receptors | poorly activated both receptors
CSCC[C@@H]1NC(=O)[C@@H](NC(=O)[C@H](N)CCCNC(=N)N)CSSC[C@@H](C(N)=O)NC(=O)[C@@H]2CCCN2C(=O)[C@H](CCCNC(=N)N)NC(=O)[C@H](Cc2ccc(O)cc2)NC(=O)[C@H](C(C)C)NC(=O)[C@H](CCCNC(=N)N)NC(=O)CNC(=O)[C@H](CC(C)C)NC1=O [SEQ. ID. NO. 4] | 0.5 | 130% | 83% | 130 | – | 35 nM | 55 nM | equipotent to Ac-hMCH(6-16)-NH2 | more than 10 fold | – | – | – | – | – | – | – | –
CSCC[C@@H]1NC(=O)CCSSC[C@@H](C(N)=O)NC(=O)[C@@H]2CCCN2C(=O)[C@H](CCCNC(=N)N)NC(=O)[C@H](Cc2ccc(O)cc2)NC(=O)[C@H](C(C)C)NC(=O)[C@H](CCCNC(=N)N)NC(=O)CNC(=O)[C@H](CC(C)C)NC1=O [SEQ. ID. NO. 15] | 5 | 92% | 47% | 500 | 3500 nM | – | > 3000 nM | – | – | ~30 fold | – | – | about 5 fold | very weak ligand | – | – | –
CSCC[C@@H]1NC(=O)[C@@H](NC(=O)[C@H](CCCNC(=N)N)NC(C)=O)CSSC[C@@H](C(N)=O)NC(=O)[C@@H]2CCCN2C(=O)[C@H](CCCNC(=N)N)NC(=O)[C@H](Cc2ccc(O)cc2)NC(=O)[C@H](C(C)C)NC(=O)[C@H](CCCNC(=N)N)NC(=O)[C@@H]2CCCN2C(=O)[C@H](CC(C)C)NC1=O [SEQ. ID. NO. 22] | – | 10% | 13% | 5 | 3500 nM | – | – | – | – | – | – | – | – | – | > 10000 nM | virtually inactive at micromolar concentrations | virtually inactive at micromolar concentrations
CSCC[C@@H]1NC(=O)[C@@H](NC(=O)[C@H](CCCNC(=N)N)NC(C)=O)CSSC[C@@H](C(N)=O)NC(=O)[C@@H]2CCCN2C(=O)[C@H](CCCNC(=N)N)NC(=O)[C@H](Cc2ccc(O)cc2)NC(=O)[C@H](C(C)C)NC(=O)[C@H](CCCNC(=N)N)NC(=O)[C@H](Cc2ccccc2)NC(=O)[C@H](CC(C)C)NC1=O [SEQ. ID. NO. 20] (HELM PEPTIDE1{[ac].R.C.M.L.F.R.V.Y.R.P.C.[am]}$PEPTIDE1,PEPTIDE1,3:R3-12:R3$$$V2.0) | 0.75 | 75% | 88% | 19 | 1.9 nM | 0.1 nM | – | – | – | – | – | – | – | – | 66 nM | – | –
CSCC[C@@H]1NC(=O)[C@@H](NC(=O)[C@@H](CCCCN)NC(C)=O)CSSC[C@@H](C(N)=O)NC(=O)[C@@H]2CCCN2C(=O)[C@H](CCCNC(=N)N)NC(=O)[C@H](Cc2ccc(O)cc2)NC(=O)[C@H](C(C)C)NC(=O)[C@H](CCCNC(=N)N)NC(=O)CNC(=O)[C@H](CC(C)C)NC1=O [SEQ. ID. NO. 13] | 22 | 130% | 55% | 3800 | – | 0.3 nM | – | – | – | – | – | – | – | – | – | – | –
